# Publication PMC8979682, “Synthesis, Antioxidant, and Antidiabetic Activities of Ketone Derivatives of Succinimide” (Evidence-based Complementary and Alternative Medicine : eCAM, 2022)
# Columns and labels:
# [1] = DPPH scavenging activity; assay type: biochemical
# Protocol: The antioxidant assay of the synthesized compounds was conducted following the previously reported method. A freshly prepared DPPH solution (50 μL of 1.0 × 10^−3 M) was added in methyl alcohol. Methanol was used as a control in this experiment. The prepared mixture was subjected to incubation at 25°C for 30 min. A decrease in the DPPH free radical concentration was calculated using a spectrophotometer at a wavelength of 517 nm. After incubation ascorbic acid was used as a positive control. The antioxidant activity was determined as a percent (%) of inhibition using the formula given:(1) percent inhibition=absorbancecontrol−absorbancesample/absorbancecontrol×100.
# [2] = molecular target: α-amylase; assay: in vitro α-amylase inhibition; assay type: biochemical
# Protocol: The starch solution was added, following incubation of the mixture, and the reaction mixture thus prepared was kept in water bath at 100°C for some time. Microplate reader measured the intensity of the color at 656 nm. Following formula was used to determine percentage inhibition:(3) percent inhibition=absorbancecontrol−absorbancesample/absorbancecontrol×100.
# [3] = test system: mice; assay: oral glucose tolerance test (OGTT); assay type: in vivo; details: glucose 2 g/kg orally
# Protocol: To perform OGTT mice fasted overnight were used including both control and treated mice. Glucose was administered orally at the dose of 2 g/kg against glibenclamide as standard drug. After administration of glucose, blood glucose level was calculated at time intervals of 0, 30, 60, and 120 min for assessment of the impact of exogenously given D-glucose on treated mice. OGTT was carried out 5 days before the completion of the study.
# To perform OGTT, mice fasted overnight were used including both control and treated mice. Glucose was administered orally at the dose of 2 g/kg against glibenclamide as a standard drug. After administration of glucose, blood glucose level was calculated at time intervals of 0, 30, 60, and 120 min for assessment of the impact of exogenously given D-glucose on treated mice.
# [4] = molecular target: α-glucosidase; assay: in vitro α-glucosidase inhibition; assay type: biochemical
# Protocol: For in vitro α-glucosidase activity, samples were prepared by adding glucopyranoside to phosphate buffer solvent, and different concentrations of the synthesized compounds (31.25, 62.5, 125, 250, and 500 µg/ml), respectively, were added to this solution and then the enzyme glucosidase in distilled water (0.5 µg/ml) was also added to the above mixture. The reaction mixture thus prepared was subjected to incubation at 37°C for 20 minutes. The reaction was halted by adding HCl after incubation of the mixture. The intensity of the color was determined at 540 nm by spectrophotometer, and the formula given below was used for the determination of percent inhibition:(2) percent inhibition=absorbancecontrol−absorbancesample/absorbancecontrol×100.
# [5] = test system: diabetic mice (by alloxan); assay: antidiabetic activity in diabetic mice (by alloxan); assay type: in vivo
# Protocol: Alloxan was used for the induction of diabetes mellitus according to reported procedure. Recently prepared Alloxan (ALX) was injected intraperitoneally to animals, fasting for 16 h, at a single dose of (150 mg/kg). […] Only diabetic animals, having random blood glucose level more than 200 mg/dl, were selected for studies. All the experimental procedure were approved from the ethical committee department of pharmacy, University of Swabi via letter No; UOS-06/2021.
# A total of 30 animals were used to determine the hypoglycemic effect of the synthesized derivatives of succinimide. The experimental animals were segregated in six groups […], having five (5) animals in each group. Group I was designated as normal group and was given normal saline I/P only. Group II was given Tween 80, and Group III was given standard drug (glibenclamide) after the induction of diabetes. Group IV, Group V, and Group VI were given the various doses of synthesized compounds, respectively. […]
# [6] = ABTS scavenging activity; assay type: biochemical
# Protocol: For the determination of the antioxidant activity of the synthesized compounds, the previously reported method for ABTS scavenging activity was used with slight modification. The stock solution of 2.4 mM of potassium per sulfate solution and 7 mM ABTS solution was prepared by mixing them in equal volumes for 16 h. The stock solution thus prepared was diluted using methyl alcohol to give absorption of 0.7 ± 0.02 units when studied at the wavelength of 734 nm using a spectrophotometer. Fresh ABTS solution was prepared for each ABTS scavenging assay. About 150 μL of the ABTS working solution was added to 50 μL of synthesized compounds and kept in darkness for 10 min. […] Methanol was used as blank, and standard ascorbic acid was run at the same time. The absorbance was calculated utilizing a microplate reader at 734 nm.
structure (smiles),measurement,setting,value
"O=C1CCCCC1C1CC(=O)N(Cc2ccccc2)C1=O (stereo not drawn) [BW2, Benzyl-3-(2-Oxocyclohexyl) Pyrrolidine-2,5-Dione]",IC50 (DPPH),[1],12.81 µg/mL
same,(%) DPPH inhibitions,[1]; 31.25 µg/ml,56.65 ± 1.34^∗∗∗ %
same,(%) DPPH inhibitions,[1]; 62.50 µg/ml,61.58 ± 1.12^∗∗∗ %
same,(%) DPPH inhibitions,[1]; 125 µg/ml,66.40 ± 0.25^∗∗∗ %
same,(%) DPPH inhibitions,[1]; 250 µg/ml,71.67 ± 1.20^∗∗∗ %
same,(%) DPPH inhibitions,[1]; 500 µg/ml,75.09 ± 0.32^∗∗∗ %
same,IC50 (α-amylase),[2],15.34 µg/mL
same,% inhibitions (α-amylase),[2]; 31.25 µg/ml,55.85 ± 0.17^∗∗∗ %
same,% inhibitions (α-amylase),[2]; 62.50 µg/ml,63.72 ± 0.11^∗∗∗ %
same,% inhibitions (α-amylase),[2]; 125 µg/ml,67.44 ± 0.15^∗∗∗ %
same,% inhibitions (α-amylase),[2]; 250 µg/ml,73.14 ± 0.49^∗∗∗ %
same,% inhibitions (α-amylase),[2]; 500 µg/ml,78.69 ± 0.14^∗∗∗ %
same,"OGTT blood glucose, 0 minutes",[3]; 0 minutes,163.7 mg/dL
same,"OGTT blood glucose, 30 minutes",[3]; 30 minutes,189.2 mg/dL
same,"OGTT blood glucose, 60 minutes",[3]; 60 minutes,214.8 mg/dL
same,"OGTT blood glucose, 120 minutes",[3]; 120 minutes,151.4 mg/dL
same,IC50 (α-glucosidase),[4],10.81 µg/mL
same,% inhibitions (α-glucosidase),[4]; 31.25 µg/ml,62.44 ± 0.55^∗∗ %
same,% inhibitions (α-glucosidase),[4]; 62.50 µg/ml,68.47 ± 0.52^∗∗∗ %
same,% inhibitions (α-glucosidase),[4]; 125 µg/ml,74.39 ± 0.49^∗∗∗ %
same,% inhibitions (α-glucosidase),[4]; 250 µg/ml,81.34 ± 0.55^∗ %
same,% inhibitions (α-glucosidase),[4]; 500 µg/ml,87.36 ± 0.49^∗ %
same,Change in body weight,[5]; dose 31.25 μg/kg,−6.8 Gm
same,Decrease in blood glucose after 15 days,[5]; dose 31.25 μg/kg,35 mg/dL
same,"Blood glucose level, 0 day",[5]; dose 31.25 μg/kg,452 mg/dL
same,"Blood glucose level, 4th day",[5]; dose 31.25 μg/kg,448 mg/dL
same,"Blood glucose level, 7th day",[5]; dose 31.25 μg/kg,431 mg/dL
same,"Blood glucose level, 10th day",[5]; dose 31.25 μg/kg,425 mg/dL
same,"Blood glucose level, 15th day",[5]; dose 31.25 μg/kg,417 mg/dL
same,Change in body weight,[5]; dose 62.5 μg/kg,−4.6 Gm
same,Decrease in blood glucose after 15 days,[5]; dose 62.5 μg/kg,58 mg/dL
same,"Blood glucose level, 0 day",[5]; dose 62.5 μg/kg,386 mg/dL
same,"Blood glucose level, 4th day",[5]; dose 62.5 μg/kg,359 mg/dL
same,"Blood glucose level, 7th day",[5]; dose 62.5 μg/kg,349 mg/dL
same,"Blood glucose level, 10th day",[5]; dose 62.5 μg/kg,336 mg/dL
same,"Blood glucose level, 15th day",[5]; dose 62.5 μg/kg,328 mg/dL
same,Change in body weight,[5]; dose 125 μg/kg,−3.7 Gm
same,Decrease in blood glucose after 15 days,[5]; dose 125 μg/kg,68 mg/dL
same,"Blood glucose level, 0 day",[5]; dose 125 μg/kg,437 mg/dL
same,"Blood glucose level, 4th day",[5]; dose 125 μg/kg,431 mg/dL
same,"Blood glucose level, 7th day",[5]; dose 125 μg/kg,422 mg/dL
same,"Blood glucose level, 10th day",[5]; dose 125 μg/kg,394 mg/dL
same,"Blood glucose level, 15th day",[5]; dose 125 μg/kg,369 mg/dL
same,Change in body weight,[5]; dose 250 μg/kg,+3.4 Gm
same,Decrease in blood glucose after 15 days,[5]; dose 250 μg/kg,111 mg/dL
same,"Blood glucose level, 0 day",[5]; dose 250 μg/kg,466 mg/dL
same,"Blood glucose level, 4th day",[5]; dose 250 μg/kg,461 mg/dL
same,"Blood glucose level, 7th day",[5]; dose 250 μg/kg,443 mg/dL
same,"Blood glucose level, 10th day",[5]; dose 250 μg/kg,407 mg/dL
same,"Blood glucose level, 15th day",[5]; dose 250 μg/kg,355 mg/dL
same,Change in body weight,[5]; dose 500 μg/kg,+7.4 Gm
same,Decrease in blood glucose after 15 days,[5]; dose 500 μg/kg,199 mg/dL
same,"Blood glucose level, 0 day",[5]; dose 500 μg/kg,456 mg/dL
same,"Blood glucose level, 4th day",[5]; dose 500 μg/kg,402 mg/dL
same,"Blood glucose level, 7th day",[5]; dose 500 μg/kg,361 mg/dL
same,"Blood glucose level, 10th day",[5]; dose 500 μg/kg,303 mg/dL
same,"Blood glucose level, 15th day",[5]; dose 500 μg/kg,257 mg/dL
same,IC50 (ABTS),[6],12.87 µg/mL
same,(%) ABTS inhibitions,[6]; 31.25 µg/ml,57.40 ± 0.76^∗∗∗ %
same,(%) ABTS inhibitions,[6]; 62.50 µg/ml,61.35 ± 0.51^∗∗∗ %
same,(%) ABTS inhibitions,[6]; 125 µg/ml,66.90 ± 0.96^∗∗∗ %
same,(%) ABTS inhibitions,[6]; 250 µg/ml,71.08 ± 0.47^∗∗∗ %
same,(%) ABTS inhibitions,[6]; 500 µg/ml,76.85 ± 2.24^∗∗∗ %
